Where two headings read alike, the source gives them in different places.
Assays:
[1] = tested on: phytanic acid omega-hydroxylase (cytochrome P450) of rat liver microsomes; test: Phytanic acid omega-hydroxylation in rat liver microsomes (formation of omega-hydroxyphytanic acid, GC/MS); type: biochemical; details: for effect on the formation of omega-hydroxyphytanic acid: different concentrations of imidazole derivatives (FIG. 4A)
Description: (§1) To this end, Male Wistar rats fed a standard laboratory diet, were fasted overnight before sacrifice and removal of the liver. The livers were rapidly chilled and washed several times in buffer containing 250 mM sucrose, 0.5 mM EDTA, 2 mM MOPS/KOH (final pH 7.4). Subsequently, the livers were minced and homogenized with a Potter S homogenizer (B. Braun, Germany) with a teflon pestle at 500 rpm (5 strokes), followed by centrifugation of the homogenate for 10 min at 550×g. The obtained post-nuclear supernatant was subjected to centrifugation at 22,500×g for 10 min to remove mitochondria and lysosomes. Finally, the microsomal fraction was obtained by centrifugation of the supernatant for 3 h at 32,000×g. The microsomal pellet fraction was taken up in PBS containing 5 mM DTT and divided into small aliquots, which were stored at −80° C. The microsomes were sonicated 3 times for 10 s at 8 Watt before each experiment.
The standard reaction mixture consisted of 100 mM potassium phosphate buffer pH 7.4 and rat liver microsomes (1 mg/ml end concentration) plus phytanic acid dissolved in DMSO (200 μM end concentration, unless indicated otherwise). Reactions were initiated by addition of NADPH at a final concentration of 1 mM. The final reaction volume was 0.2 ml. Reactions were terminated by addition of 0.2 ml 1 M HCl. […] The internal standard (IS, 10 nmol 3-hydroxyheptadecanoic acid in 20 μl ethanol) was added to this aqueous mixture. The samples were extracted twice with 6 ml ethylacetate-diethylether (1:1 v/v). The organic layer was collected and the solvents evaporated under vacuum using a rotary evaporator at room temperature. The residue was dissolved in 4 ml ethylacetate and further dried with MgSO4. After spinning down the MgSO4, the solution was transferred to 4 ml reaction vials and the solvent evaporated under nitrogen. […] TMS ester/ether formation was performed with 40 μl N,O-bis-(trimethylsilyl)trifluoroacetamide (BSTFA) containing 1% trimethylchlorosilane (TMCS) and 10 μl pyridine. The vials were sealed with a Teflon-lined screwcap and incubated at 80° C. for 1 hour. After the incubation the solution could be directly used for GC-MS analysis.
The identity of the substrate, the internal standard, and the reaction product(s) was verified by taking mass spectra of the pertrimethylsilylated derivatives in the scanning electron impact mode.
Based on the experiments described above, I selected the following assay conditions: 0,75 mg/ml methyl-beta-cyclodextrin, 100 mM potassium phosphate (pH 7.6), 1 mM NADPH, and 200 μM phytanic acid. Under these conditions, formation of omega-hydroxyphytanic acid was linear with time up to 60 min, and with protein up to 1 mg/ml (data not shown).
FIG. 4. […] Rat liver microsomes were incubated with phytanic acid in the presence of different concentrations of imidazole derivatives. The inhibitory effect of the imidazole derivatives on the formation of omega-hydroxyphytanic acid (omega-HPA; A) and (omega-1)-hydroxyphytanic acid (B) is shown. The data shown represent means of duplicate experiments.

[2] = tested on: phytanic acid (omega-1)-hydroxylase (cytochrome P450) of rat liver microsomes; test: Phytanic acid (omega-1)-hydroxylation in rat liver microsomes (formation of (omega-1)-hydroxyphytanic acid, GC/MS); type: biochemical; details: different concentrations up to 100 μM (FIG. 4B)
Description: as §1
The standard reaction mixture consisted of 100 mM potassium phosphate buffer pH 7.4 and rat liver microsomes (1 mg/ml end concentration) plus phytanic acid dissolved in DMSO (200 μM end concentration, unless indicated otherwise). Reactions were initiated by addition of NADPH at a final concentration of 1 mM. The final reaction volume was 0.2 ml. Reactions were terminated by addition of 0.2 ml 1 M HCl. […]

[3] = tested on: phytanic acid omega-hydroxylase (cytochrome P450) of pooled human liver microsomes; test: Phytanic acid omega-hydroxylation in pooled human liver microsomes (formation of omega-hydroxyphytanic acid, GC/MS); details: for effect on the formation of omega-hydroxyphytanic acid / Km: pooled human liver microsomes; for effect on the formation of omega-hydroxyphytanic acid: different concentrations of imidazole derivatives (FIG. 7A)
Description: (§2) Reactions were initiated by adding NADPH (final concentration 1 mM) and terminated by addition of 0.1 ml 1 M HCl. […] After addition of the internal standard (IS, 2 nmol 3-hydroxyheptadecanoic acid in 20 μl ethanol) the samples were extracted twice with 6 ml ethylacetate-diethylether (1:1 v/v). The organic layers were collected and the solvents evaporated. The residue was dissolved in 4 ml ethylacetate and further dried with anhydrous MgSO4 and again evaporated. […] TMS ester/ether formation was performed by incubating the samples with 40 μl BSTFA containing 1% TMCS and 10 μl pyridine at 80° C. for 1 hour. After the incubation the solution was directly used for GC-MS analysis.
(§3) FIG. 7. […] Pooled human liver microsomes were incubated with phytanic acid in the presence of different concentrations of imidazole derivatives. […] The data shown represent means of duplicate experiments.

[4] = tested on: phytanic acid omega-hydroxylase (cytochrome P450); test: in vitro; details: human, pH 7.7
Description: as §2, §3

[5] = tested on: phytanic acid (omega-1)-hydroxylase (cytochrome P450); test: in vitro; details: human, pH 7.7
Description: as §2, §3

| Structure (SMILES) | effect on the formation of omega-hydroxyphytanic acid [1] | effect on the formation of (omega-1)-hydroxyphytanic acid [2] | effect on the formation of omega-hydroxyphytanic acid [3] | IC50 [4] [µM] | IC50 [5] [µM] | further results |
| --- | --- | --- | --- | --- | --- | --- |
| CC(=O)N1CCN(c2ccc(OCC3COC(Cn4ccnc4)(c4ccc(Cl)cc4Cl)O3)cc2)CC1 (stereo not drawn) [Ketoconazole] | inhibited | – | – | – | – | – |
| Clc1ccccc1C(c1ccccc1)(c1ccccc1)n1ccnc1 [Clotrimazole] | inhibited | stimulatory effect at low concentrations with little inhibition at the highest concentrations used | inhibit product formation | 43 | 3 | – |
| Clc1ccc(COC(Cn2ccnc2)c2ccc(Cl)cc2Cl)c(Cl)c1 (stereo not drawn) [Miconazole] | inhibited | most potent inhibitor | inhibit product formation | 30 | < 2 | – |
| c1ccc(-c2ccc(C(c3ccccc3)n3ccnc3)cc2)cc1 (stereo not drawn) [Bifonazole] | most potent inhibitor | – | inhibit product formation | 13 | < 2 | – |
| CC(C)CCCC(C)CCCC(C)CCCC(C)CC(=O)O (stereo not drawn) [phytanic acid, 3,7,11,15-tetramethylhexadecanoic acid] | – | – | – | – | – | Km ([1]; fixed molar ratio phytanic acid/methyl-beta-cyclodextrin (FIG. 3D), read-out: apparent Km for phytanic acid): 114 ± 9 µM; ratio omega:(omega-1) hydroxylated products ([1]; four separate experiments): 2.2±0.2; ratio omega:(omega-1) hydroxylated products ([3]; pooled human microsomes, four separate experiments): 15.4±0.7; Km ([3]; read-out: apparent Km for phytanic acid, estimated as substrate concentration with half maximal omega-hydroxylation activity (FIG. 6D)): 80 µM |
| NC(=O)C1=CN([C@@H]2O[C@H](COP(=O)(O)OP(=O)(O)OC[C@H]3O[C@@H](n4cnc5c(N)ncnc54)[C@H](OP(=O)(O)O)[C@@H]3O)[C@@H](O)[C@H]2O)C=CC1 [NADPH] | – | – | – | – | – | Km ([1]; NADPH regenerating system, Lineweaver-Burke plot (FIG. 3C), read-out: apparent Km for NADPH): 35 µM; Km ([3]; read-out: Km for NADPH, NADPH-regenerating system, Lineweaver Burke plot (FIG. 6C), means of duplicate experiments): 2 µM |

— patent US20060241073A1, “Means and methods for counteracting fatty acid accumulation” (priority 2005, published 2006)
